≈ marks a conversion by molar mass, not a printed value.
Tests used:
[1] = Permeability of compound at 100 uM at pH 5 incubated for 4 hrs by PAMPA-GIT assay; format: ADME; settings: read-out: permeability
[2] = Permeability of compound at 100 uM at pH 7.4 incubated for 4 hrs by PAMPA-GIT assay; format: ADME; settings: read-out: permeability
[3] = Permeability of compound at 100 uM at pH 6 incubated for 4 hrs by PAMPA-GIT assay; format: ADME; settings: read-out: permeability
[4] = Thermodynamic solubility of compound at pH 7.4 incubated for 24 hrs by shake-flask method; format: physicochemical; settings: buffer, read-out: Therm_solubility
Plasmodium falciparum [5] = experiment: Antiplasmodial activity against Plasmodium falciparum K1 assessed as reduction in parasite growth; format: functional, organism-based
[6] = (§1) Cytotoxicity against human HepG2 cells assessed as reduction in cell viability incubated for 72 hrs by MTT assay; format: toxicity, cell-based; settings: HepG2 cells
Plasmodium falciparum [7] = experiment: Antiplasmodial activity against chloroquine,pyrimethamine and proguanil resistant blood stage Plasmodium falciparum K1 assessed as reduction in parasite growth incubated for 72 hrs by SYBR Green I fluorescence-based method; format: functional, organism-based
[8] = Selectivity index, ratio of CC50 for cytotoxicity against human HepG2 cells to EC50 for antiplasmodial activity against chloroquine,pyrimethamine and proguanil resistant blood stage Plasmodium falciparum K1; format: toxicity, cell-based; settings: for selectivity ratio: HepG2 cells, read-out: Ratio CC50/EC50
[9] = Solubility of compound in culture media; format: physicochemical
HepG2 = experiment: as §1; format: toxicity, cell-based; settings: hepg2, 72 h, 72 h
[10] = Plasmodium falciparum, K1, 72 h

Question: Which Papp at 4 h, 100 µM [1] does the source give for `Cc1ccc(-c2cc3nc(NC(C)(C)C)[nH]c(=O)c3s2)cc1` here?
Answer: 4.18 ×10⁻⁶ cm/s

Question: And the Papp at 4 h, 100 µM [2]?
Answer: 2.05 ×10⁻⁶ cm/s

Question: And the Papp at 4 h, 100 µM [3]?
Answer: 1.86 ×10⁻⁶ cm/s

Question: What about the solubility thermodynamic at 24 h [4] of the same molecule?
Answer: 1.56 µM (≈ 0.489 µg/mL)

Question: Which EC50 (Plasmodium falciparum [5]) does the source give for `Cc1ccc(-c2ccc3nc(NC(C)(C)C)[nH]c(=O)c3c2)cc1` here?
Answer: > 5 µM

Question: Which EC50 (Plasmodium falciparum [5]) does the source give for `Cc1ccc(-c2ccc3c(=O)[nH]c(NC(C)(C)C)nc3c2)cc1` here?
Answer: > 5 µM

Question: Which Papp at 4 h, 100 µM [2] does the source give for `Cc1ccc(-c2cc3nc(NC(C)(C)C)[nH]c(=O)c3s2)cc1.Cl` here?
Answer: 0.46 ×10⁻⁶ cm/s

Question: And the solubility thermodynamic at 24 h [4]?
Answer: 7.92 µM

Question: With `Cc1ccc(-c2cc3nc(NC(C)(C)C)[nH]c(=O)c3o2)cc1` as the molecule, how does the CC50 at 72 h [6] read?
Answer: 10.9 µM

Question: And the EC50 (Plasmodium falciparum [7])?
Answer: 0.8 µM

Question: What about the “Ratio CC50/EC50” value [8] of the same molecule?
Answer: 13.6

Question: Which CC50 at 72 h [6] does the source give for `CC(C)(C)Nc1nc2cc(-c3ccc(F)cc3)oc2c(=O)[nH]1` here?
Answer: > 3.12 µM

Question: What about the EC50 (Plasmodium falciparum [7]; [10]) of the same molecule?
Answer: 2.9 µM

Question: And the solubility [9]?
Answer: Insoluble

Question: And the selectivity ratio [8]?
Answer: > 1.1

Question: For `CC(C)(C)Nc1nc2sc(-c3ccccc3)cc2c(=O)[nH]1`, which CC50 at 72 h [6] is on record?
Answer: > 12.5 µM

Question: And the EC50 (Plasmodium falciparum [7]; [10])?
Answer: 33.8 µM

Question: And the selectivity ratio [8]?
Answer: > 0.4

Question: With `Cc1ccc(-c2cc3nc(NC(C)C)[nH]c(=O)c3o2)cc1` as the molecule, how does the Papp at 4 h, 100 µM [1] read?
Answer: 41.1 ×10⁻⁶ cm/s

Question: What about the Papp at 4 h, 100 µM [2] of the same molecule?
Answer: 76.9 ×10⁻⁶ cm/s

Question: And the Papp at 4 h, 100 µM [3]?
Answer: 64.3 ×10⁻⁶ cm/s

Question: What about the solubility thermodynamic at 24 h [4] of the same molecule?
Answer: 11.5 µM (≈ 3.26 µg/mL)

Question: And the CC50 at 72 h [6]?
Answer: 20.4 µM

Question: What about the EC50 (Plasmodium falciparum [7]; [10]) of the same molecule?
Answer: 0.09 µM

Question: What about the selectivity ratio [8] of the same molecule?
Answer: 227

Question: For `Cc1ccc(-c2cc3nc(NC(C)C)[nH]c(=O)c3[se]2)cc1`, which CC50 (HepG2) is on record?
Answer: > 25 µM

Question: And the EC50 (Plasmodium falciparum [7]; [10])?
Answer: 0.8 µM

Question: What about the “Ratio CC50/EC50” value [8] of the same molecule?
Answer: > 31.3

Question: For `Cc1ccc(-c2nc3nc(NC(C)(C)C)[nH]c(=O)c3s2)cc1`, which CC50 at 72 h [6] is on record?
Answer: > 5 µM

Question: And the EC50 (Plasmodium falciparum [7]; [10])?
Answer: 4.6 µM

Question: What about the selectivity ratio [8] of the same molecule?
Answer: > 1.1

Question: With `Cc1ccc(-c2cc3nc(NC(C)(C)C)[nH]c(=O)c3[se]2)cc1` as the molecule, how does the CC50 (HepG2) read?
Answer: > 7.8 µM

Question: And the EC50 (Plasmodium falciparum [7])?
Answer: 1.3 µM

Question: And the “Ratio CC50/EC50” value [8]?
Answer: > 6

Question: What does the source list for `Cc1ccc(-c2cc3nc(NC(C)(C)C)[nH]c(=O)c3[se]2)cc1.Cl`?
Answer: CC50 (HepG2): > 3.12 µM; EC50 (Plasmodium falciparum [7]): 0.13 µM; Ratio CC50/EC50 [8]: > 24

Question: Which CC50 at 72 h [6] does the source give for `Cc1c(-c2ccc(F)cc2)sc2c(=O)[nH]c(NC(C)C)nc12` here?
Answer: 19.7 µM

Question: What about the EC50 (Plasmodium falciparum [7]; [10]) of the same molecule?
Answer: 4.3 µM

Question: And the selectivity ratio [8]?
Answer: 4.6

Question: Which results are given for `CC(C)(C)Nc1nc2sc(-c3ccc(Cl)cc3)cc2c(=O)[nH]1`?
Answer: CC50 at 72 h [6]: 21.4 µM; EC50 (Plasmodium falciparum [7]; [10]): > 50 µM; selectivity ratio [8]: < 0.4

Question: Which solubility [9] does the source give for `CC(C)(C)Nc1nc2nc(-c3ccc(Cl)cc3)sc2c(=O)[nH]1` here?
Answer: Insoluble

Question: For `Cc1ccc(-c2cc3nc(NC(C)(C)C)[nH]c(=O)c3o2)cc1.Cl`, which CC50 (HepG2) is on record?
Answer: 21.7 µM

Question: What about the EC50 (Plasmodium falciparum [7]) of the same molecule?
Answer: 0.3 µM

Question: And the “Ratio CC50/EC50” value [8]?
Answer: 72.3

Question: Which CC50 at 72 h [6] does the source give for `CC(C)(C)Nc1nc2cc(-c3ccc(Cl)cc3)oc2c(=O)[nH]1` here?
Answer: > 6.25 µM

Question: What about the EC50 (Plasmodium falciparum [7]; [10]) of the same molecule?
Answer: 0.4 µM

Question: What about the solubility [9] of the same molecule?
Answer: Insoluble

Question: What about the selectivity ratio [8] of the same molecule?
Answer: > 15.6

Question: With `Cc1ccc(-c2cc3nc(NC(C)C)[nH]c(=O)c3[se]2)cc1.Cl` as the molecule, how does the CC50 (HepG2) read?
Answer: > 10 µM

Question: And the EC50 (Plasmodium falciparum [7])?
Answer: 0.77 µM

Question: What about the “Ratio CC50/EC50” value [8] of the same molecule?
Answer: > 13

Question: Which solubility [9] does the source give for `CC(C)(C)Nc1nc2nc(-c3ccc(F)cc3)sc2c(=O)[nH]1` here?
Answer: Insoluble

Question: Which CC50 at 72 h [6] does the source give for `CC(C)(C)Nc1nc2sc(-c3ccc(F)cc3)cc2c(=O)[nH]1` here?
Answer: > 25 µM

Question: And the EC50 (Plasmodium falciparum [7]; [10])?
Answer: > 12.5 µM

Question: Which results are given for `Cc1ccc(-c2cc3c(=O)[nH]c(NC(C)(C)C)nc3s2)cc1`?
Answer: CC50 at 72 h [6]: 20.5 µM; EC50 (Plasmodium falciparum [7]; [10]): 32.4 µM; selectivity ratio [8]: 0.6

Question: For `CC(C)(C)Nc1nc2nc(-c3ccccc3)sc2c(=O)[nH]1`, which CC50 at 72 h [6] is on record?
Answer: > 25 µM

Question: What about the EC50 (Plasmodium falciparum [7]; [10]) of the same molecule?
Answer: > 12.5 µM

Question: With `CCOC(=O)c1[nH]c(-c2ccc(C)cc2)c2c(=O)[nH]c(NC(C)(C)C)nc12` as the molecule, how does the CC50 at 72 h [6] read?
Answer: 7.4 µM

Question: What about the EC50 (Plasmodium falciparum [7]; [10]) of the same molecule?
Answer: 17.1 µM

Question: What about the selectivity ratio [8] of the same molecule?
Answer: 0.4

Question: For `Cc1c(-c2ccc(Cl)cc2)sc2c(=O)[nH]c(NC(C)C)nc12`, which CC50 at 72 h [6] is on record?
Answer: > 25 µM

Question: What about the EC50 (Plasmodium falciparum [7]; [10]) of the same molecule?
Answer: 4.4 µM

Question: What about the selectivity ratio [8] of the same molecule?
Answer: > 5.7

Reference: ChEMBL document CHEMBL5104145, “Synthesis of antiplasmodial 2-aminothieno[3,2-d]pyrimidin-4(3H)-one analogues using the scaffold hopping strategy” (Eur J Med Chem, 2022)
